Reference: article PMC11124822, “Discovery and Anticancer Screening of Novel Oxindole-Based Derivative Bearing Pyridyl Group as Potent and Selective Dual FLT3/CDK2 Kinase Inhibitor” (Pharmaceuticals, 2024)

Experiments:
Assay in all cases: NCI-60 antiproliferative screen (SRB)
[1] = test system: EKVX; type: cell-based, human; conditions: Homo sapiens; 10 µM single dose, 48 h; EKVX (NSCLC); read-out: Growth inhibition (%)
[2] = test system: TK-10; type: cell-based, human; conditions: Homo sapiens; 10 µM single dose, 48 h; TK-10 (Renal); read-out: Growth inhibition (%)
[3] = test system: RXF 393; type: cell-based, human; conditions: Homo sapiens; 10 µM single dose, 48 h; RXF 393 (Renal); read-out: Growth inhibition (%)
[4] = test system: PC-3; type: cell-based, human; conditions: Homo sapiens; 10 µM single dose, 48 h; PC-3 (Prostate); read-out: Growth inhibition (%)
[5] = test system: OVCAR-5; type: cell-based, human; conditions: Homo sapiens; 10 µM single dose, 48 h; OVCAR-5 (Ovarian); read-out: Growth inhibition (%)
[6] = test system: T-47D; type: cell-based, human; conditions: Homo sapiens, T47D; 10 µM single dose, 48 h; T-47D (Breast); read-out: Growth inhibition (%)
[7] = test system: MOLT-4; type: cell-based; conditions: Homo sapiens; 10 µM single dose, 48 h; MOLT-4 (Leukemia); read-out: Growth inhibition (%)
[8] = test system: MDA-MB-231; type: cell-based, human; conditions: Homo sapiens; 10 µM single dose, 48 h; MDA-MB-231 (Breast); read-out: Growth inhibition (%)
[9] = test system: RPMI-8226; type: cell-based, human; conditions: Homo sapiens; 10 µM single dose, 48 h; RPMI-8226 (Leukemia); read-out: Growth inhibition (%)
[10] = test system: KM12; type: cell-based, human; conditions: Homo sapiens; 10 µM single dose, 48 h; KM12 (Colon); read-out: Growth inhibition (%)
[11] = test system: MDA-MB-468; type: cell-based, human; conditions: Homo sapiens; 10 µM single dose, 48 h; MDA-MB-468 (Breast); read-out: Growth inhibition (%)
[12] = test system: U251; type: cell-based, human; conditions: Homo sapiens, U-251; 10 µM single dose, 48 h; U251 (CNS); read-out: Growth inhibition (%)
[13] = test system: COLO 205; type: cell-based, human; conditions: Homo sapiens; 10 µM single dose, 48 h; COLO 205 (Colon); read-out: Growth inhibition (%)
[14] = test system: SF-295; type: cell-based, human; conditions: Homo sapiens; 10 µM single dose, 48 h; SF-295 (CNS); read-out: Growth inhibition (%)
[15] = test system: 786-0; type: cell-based, human; conditions: Homo sapiens; 10 µM single dose, 48 h; 786-0 (Renal); read-out: Growth inhibition (%)
[16] = test system: SK-MEL-28; type: cell-based, human; conditions: Homo sapiens; 10 µM single dose, 48 h; SK-MEL-28 (Melanoma); read-out: Growth inhibition (%)
[17] = test system: UO-31; type: cell-based, human; conditions: Homo sapiens; 10 µM single dose, 48 h; UO-31 (Renal); read-out: Growth inhibition (%)
[18] = test system: IGROV1; type: cell-based, human; conditions: Homo sapiens, IGROV-1; 10 µM single dose, 48 h; IGROV1 (Ovarian); read-out: Growth inhibition (%)
[19] = test system: HL-60(TB); type: cell-based, human; conditions: Homo sapiens; 10 µM single dose, 48 h; HL-60(TB) (Leukemia); read-out: Growth inhibition (%)
[20] = test system: SNB-75; conditions: Homo sapiens, SNB-75, 48 h, read-out: Growth inhibition (%)
Description: Anticancer activity was tested against 60 cancer cell lines (NCI-60) after 48h treatments with a single dosage of 10 μM of compounds by using sulforhodamine B assay [39] on the traditional 96-well platform. […] The human cancer cell lines of the NCI-60 panel are grown in RPMI 1640 medium supplemented with 5% FBS (fetal bovine serum) and 2 mM L-glutamine. […] For further analysis of promising compounds, five dose screens were performed against the NCI-60 panel. Drug treatments are performed in 5 doses using 10-fold or ½ log dose dilutions.

[21] = test system: HS 578T; type: cell-based, human; conditions: Homo sapiens; 10 µM single dose, 48 h; HS 578T (Breast); read-out: Growth inhibition (%)
[22] = test system: CCRF-CEM; type: cell-based, human; conditions: Homo sapiens; 10 µM single dose, 48 h; CCRF-CEM (Leukemia); read-out: Growth inhibition (%)
[23] = test system: SN12C; type: cell-based, human; conditions: Homo sapiens; 10 µM single dose, 48 h; SN12C (Renal); read-out: Growth inhibition (%)
[24] = test system: K-562; type: cell-based, human; conditions: Homo sapiens, K562; 10 µM single dose, 48 h; K-562 (Leukemia); read-out: Growth inhibition (%)
[25] = test system: HCC-2998; type: cell-based, human; conditions: Homo sapiens; 10 µM single dose, 48 h; HCC-2998 (Colon); read-out: Growth inhibition (%)
[26] = test system: SK-MEL-2; type: cell-based, human; conditions: Homo sapiens; 10 µM single dose, 48 h; SK-MEL-2 (Melanoma); read-out: Growth inhibition (%)
[27] = test system: NCI-H226; type: cell-based, human; conditions: Homo sapiens; 10 µM single dose, 48 h; NCI-H226 (NSCLC); read-out: Growth inhibition (%)
[28] = test system: HCT-116; type: cell-based, human; conditions: Homo sapiens; 10 µM single dose, 48 h; HCT-116 (Colon); read-out: Growth inhibition (%)
[29] = test system: MCF7; type: cell-based, human; conditions: Homo sapiens; 10 µM single dose, 48 h; MCF7 (Breast); read-out: Growth inhibition (%)
[30] = test system: MALME-3M; type: cell-based, human; conditions: Homo sapiens; 10 µM single dose, 48 h; MALME-3M (Melanoma); read-out: Growth inhibition (%)

## O=C1Nc2ccccc2C1=Cc1ccc(OCc2ccccc2)cc1 (mixture of isomers) [Compound 5a, (E/Z)-3-[4-(Benzyloxy)benzylidene] indolin-2-one]
[1]
  inhibition at 10 µM: 0.69%
[2]
  inhibition at 10 µM: -8.25%
[3]
  inhibition at 10 µM: -16.2%
[4]
  inhibition at 10 µM: 5.85%
[5]
  inhibition at 10 µM: -2.24%
[6]
  inhibition at 10 µM: 0.85%
[7]
  inhibition at 10 µM: 2.73%
[8]
  inhibition at 10 µM: -10%
[9]
  inhibition at 10 µM: 1.13%
[10]
  inhibition at 10 µM: -3.15%
[11]
  inhibition at 10 µM: 0.75%
[12]
  inhibition at 10 µM: -3.49%
[13]
  inhibition at 10 µM: -13.1%
[14]
  inhibition at 10 µM: -6.78%
[15]
  inhibition at 10 µM: 3.67%
[16]
  inhibition at 10 µM: -7.21%
[17]
  inhibition at 10 µM: 14.9%
[18]
  inhibition at 10 µM: -9.53%
[19]
  inhibition at 10 µM: 11.5%
[20]
  inhibition at 10 µM: 14.6%
[21]
  inhibition at 10 µM: -6.13%
[22]
  inhibition at 10 µM: 0.52%
[23]
  inhibition at 10 µM: 6.16%
[24]
  inhibition at 10 µM: 11.8%
[25]
  inhibition at 10 µM: -13.1%
[26]
  inhibition at 10 µM: -4.59%
[27]
  inhibition at 10 µM: 4.45%
[28]
  inhibition at 10 µM: 4.24%
[29]
  inhibition at 10 µM: 15.8%
[30]
  inhibition at 10 µM: -7.59%

## O=C1Nc2ccccc2C1=Cc1ccc(OCc2ccncc2)cc1 (mixture of isomers) [Compound 5m, (E/Z)-3-[4-(Pyridin-4-ylmethoxy)benzylidene] indolin-2-one]
[1]
  inhibition at 10 µM: 63.5%
[2]
  inhibition at 10 µM: 17.9%
[3]
  inhibition at 10 µM: 43.9%
[4]
  inhibition at 10 µM: 46%
[5]
  inhibition at 10 µM: -33.2%
[6]
  inhibition at 10 µM: 65.1%
[7]
  inhibition at 10 µM: 78.5%
[8]
  inhibition at 10 µM: 16.6%
[9]
  inhibition at 10 µM: 71.5%
[10]
  inhibition at 10 µM: 66.3%
[11]
  inhibition at 10 µM: 91.1%
[12]
  inhibition at 10 µM: 38.9%
[13]
  inhibition at 10 µM: 38.3%
[14]
  inhibition at 10 µM: 58.3%
[15]
  inhibition at 10 µM: 14.6%
[16]
  inhibition at 10 µM: -4.73%
[17]
  inhibition at 10 µM: 44.7%
[18]
  inhibition at 10 µM: 25.4%
[19]
  inhibition at 10 µM: 55.3%
[20]
  inhibition at 10 µM: 35.2%
[21]
  inhibition at 10 µM: 17.9%
[22]
  inhibition at 10 µM: 40.5%
[23]
  inhibition at 10 µM: 21.4%
[24]
  inhibition at 10 µM: 62.7%
[25]
  inhibition at 10 µM: 20.6%
[26]
  inhibition at 10 µM: 27.2%
[27]
  inhibition at 10 µM: 42.4%
[28]
  inhibition at 10 µM: 40.5%
[29]
  inhibition at 10 µM: 71.6%
[30]
  inhibition at 10 µM: 17.4%
